Data as given in patent US8198274B2, “Substituted indolyl and indazolyl derivatives and uses thereof” (Roche Palo Alto LLC, priority 2008, dated 2012).
Where a name gives a salt, the structure may show the parent alone.

How the values were obtained:
[1] = biological target: T1, human serotonin transporter (hSERT) (Homo sapiens, UniProt P31645); assay: Screening for human serotonin transporter (hSERT) antagonists, scintillation proximity assay, competition with [3H]-Citalopram; assay type: binding; conditions: membranes of HEK-293 cells, SPA
T1 construct: expressed in transfected cells; Tatsumi et al. 1997), membrane preparation
Procedure: The screening assay of this example was used to determine the affinity of ligands at the hSERT transporter by competition with [^3H]-Citalopram.
Scintillation Proximity Assay (SPA) works by bringing radioligand within close proximity to the bead's scintillant to stimulate light emission. In this assay, the receptor-containing membranes were pre-coupled to the SPA beads and the binding of the appropriate radioligand to the transporter was measured. The light emission was proportional to the amount of bound radioligand. Unbound radioligand produced no signal as a result of distant proximity to scintillant (lack of energy transfer). […]
Cell membranes were prepared using a membrane preparation buffer of 50 mM TRIS (pH 7.4). […] After a second centrifugation, the pellet was re-homogenized and brought to a final volume determined during the assay. […]
The % inhibition was calculated for each compound tested [(Compound counts per minute (CPM) at maximum concentration-Non-Specific CPM)/Total CPM*100]. […]
[formula] where max=total binding, min=non specific binding, x=concentration (M) of the tested compound and n=Hill slope. The inhibition dissociation constant (Ki) of each compound was determined according to the method of Cheng-Prusoff and then converted into negative logarithm (pKi) of the Ki.

T1 sequence (P31645 whole entry): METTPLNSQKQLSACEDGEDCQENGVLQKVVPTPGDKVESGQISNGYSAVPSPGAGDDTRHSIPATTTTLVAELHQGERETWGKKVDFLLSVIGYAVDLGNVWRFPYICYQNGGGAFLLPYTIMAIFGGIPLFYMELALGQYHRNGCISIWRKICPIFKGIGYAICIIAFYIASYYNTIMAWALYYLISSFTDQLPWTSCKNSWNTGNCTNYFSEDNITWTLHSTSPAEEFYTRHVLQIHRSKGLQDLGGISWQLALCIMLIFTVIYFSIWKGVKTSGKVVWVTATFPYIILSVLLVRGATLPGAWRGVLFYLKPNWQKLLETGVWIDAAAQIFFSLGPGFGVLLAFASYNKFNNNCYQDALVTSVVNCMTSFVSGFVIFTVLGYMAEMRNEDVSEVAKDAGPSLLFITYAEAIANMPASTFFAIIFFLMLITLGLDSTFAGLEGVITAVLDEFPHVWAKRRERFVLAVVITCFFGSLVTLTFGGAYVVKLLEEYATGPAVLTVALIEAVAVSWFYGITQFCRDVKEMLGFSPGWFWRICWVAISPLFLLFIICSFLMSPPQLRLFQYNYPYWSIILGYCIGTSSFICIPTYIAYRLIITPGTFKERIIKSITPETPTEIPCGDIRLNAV

Row | SMILES | melting point [°C] | Ki [1] [nM]
1 | CNCc1cc(OC)ccc1Cc1ccc2[nH]ccc2c1 [Compound 34, [2-(1H-Indol-5-ylmethyl)-5-methoxy-benzyl]-methyl-amine] | 155 to 156 | 
2 | CNCc1cc(N2CCOCC2)ccc1Cc1ccc2[nH]ccc2c1 (as salt: fumarate) [Compound 39, [2-(1H-Indol-5-ylmethyl)-5-morpholin-4-yl-benzyl]-methyl-amine] | 135 to 136 | 
3 | CNCc1ccccc1Cc1cccc2[nH]ccc12 [Compound 16, [2-(1H-Indol-4-ylmethyl)-benzyl]-methyl-amine] | 111 to 112 | 
4 | CNCc1ccc(C(N)=O)cc1Cc1ccc2[nH]ccc2c1 [Compound 44, 3-(1H-Indol-5-ylmethyl)-4-methylaminomethyl-benzamide] | 97 to 100 | 
5 | CNCc1ccccc1Cc1ccc2[nH]c(S(C)(=O)=O)cc2c1 (as salt: fumarate) [Compound 49, [2-(2-Methanesulfonyl-1H-indol-5-ylmethyl)-benzyl]-methyl-amine] | 179 to 180 | 
6 | CNCc1ccc(OC)cc1Cc1ccc2[nH]ccc2c1 [Compound 33, [2-(1H-Indol-5-ylmethyl)-4-methoxy-benzyl]-methyl-amine] | 157 to 158 | 
7 | CNCc1cc(NS(C)(=O)=O)ccc1Cc1ccc2[nH]ccc2c1 [Compound 41, N-[4-(1H-Indol-5-ylmethyl)-3-methylaminomethyl-phenyl]-methanesulfonamide] | 125 to 126 | 
8 | CNCc1scnc1Cc1ccc2[nH]ccc2c1 [Compound 45, [4-(1H-Indol-5-ylmethyl)-thiazol-5-ylmethyl]-methyl-amine] | 152 to 153 | 
9 | CNCc1cccc(Cc2ccc3[nH]ccc3c2)c1 [Compound 32, [3-(1H-Indol-5-ylmethyl)-benzyl]-methyl-amine] | 153 | 
10 | CNCc1cc(Cl)ccc1Cc1ccc2[nH]ccc2c1 [Compound 27, [5-Chloro-2-(1H-indol-5-ylmethyl)-benzyl]-methyl-amine] | 164 to 165 | 
11 | CNCc1ccccc1Cc1ccc2[nH]cc(C#N)c2c1 [Compound 29, 5-(2-Methylaminomethyl-benzyl)-1H-indole-3-carbonitrile] | 179 to 180 | ~0.1

Further lines, results first:

Row | melting point [°C] | Ki [1] [nM] | SMILES
12 | 128 to 130 |  | c1ccc(CN2CCC2)c(Cc2ccc3[nH]ccc3c2)c1 [Compound 18, 5-(2-Azetidin-1-ylmethyl-benzyl)-1H-indole]
13 | 160 to 163 |  | CNCc1ccc(C#N)cc1Cc1ccc2[nH]ccc2c1 [Compound 43, 3-(1H-Indol-5-ylmethyl)-4-methylaminomethyl-benzonitrile]
14 | 61 to 67 |  | c1ccc(Cn2ccnc2)c(Cc2ccc3[nH]ccc3c2)c1 [Compound 25, 5-(2-Imidazol-1-ylmethyl-benzyl)-1H-indole]
15 | 198 to 199 |  | CNCc1ccccc1Cc1ccc2[nH]ccc2c1 (as salt: hydrochloride) [Compound 1, [2-(1H-Indol-5-ylmethyl)-benzyl]-methyl-amine]
16 | 70 to 72 |  | NCC(O)c1ccccc1Cc1ccc2[nH]ccc2c1 (stereo not drawn) [Compound 47, 2-Amino-1-[2-(1H-indol-5-ylmethyl)-phenyl]-ethanol]
17 | 144 to 145 |  | CNCc1cc(C#N)ccc1Cc1ccc2[nH]ccc2c1 [Compound 38, 4-(1H-Indol-5-ylmethyl)-3-methylaminomethyl-benzonitrile]
18 | 173 to 174 |  | c1cc2c(c(Cc3ccc4[nH]ccc4c3)c1)CNCC2
19 | 117 to 118 |  | OCCNCc1ccccc1Cc1ccc2[nH]ccc2c1 [Compound 21, 2-[2-(1H-Indol-5-ylmethyl)-benzylamino]-ethanol]
20 | 194 to 195 |  | c1cc2c(c(Cc3ccc4[nH]ccc4c3)c1)CCNC2
21 | 189 to 190 |  | c1ccc(N2CCOCC2)c(Cc2ccc3[nH]ccc3c2)c1 [Compound 48, 5-(2-Morpholin-4-yl-benzyl)-1H-indole]
22 | 162 to 163 |  | CNCc1cc(F)ccc1Cc1ccc2[nH]ccc2c1 [Compound 20, [5-Fluoro-2-(1H-indol-5-ylmethyl)-benzyl]-methyl-amine]
23 | 75 to 78 |  | CNCc1ccccc1C(O)c1ccc2[nH]ccc2c1 (stereo not drawn) [Compound 24, (1H-Indol-5-yl)-(2-methylaminomethyl-phenyl)-methanol]
24 | 100 to 102 |  | O=C1CNCCN1c1ccccc1Cc1ccc2[nH]ccc2c1 [Compound 42, 1-[2-(1H-Indol-5-ylmethyl)-phenyl]-piperazin-2-one]
25 | 95 to 97 |  | CNCCc1ccccc1Cc1ccc2[nH]ccc2c1
26 | 132 |  | CNCc1ccccc1Cc1ccc2cc[nH]c2c1 [Compound 15, [2-(1H-Indol-6-ylmethyl)-benzyl]-methyl-amine]
